Results from patent US12611492B2, “Local drug delivery devices and methods for treating cancer” (Massachusetts Institute of Technology, priority 2013, dated 2026).

Tested on: pancreatic xenografts
Settings: NOD/SCID/γc, mouse, in vivo, iv
Text: To quantify intratumoral drug distribution, serial sections of the tumor perpendicular to the PED were imaged by quantitative confocal microscopy. […] Tissue penetration within the tumor was quantified by line scans starting from the entry site for paclitaxel (PED—tumor/device interface; IV—vessels).

CC(=O)O[C@H]1C(=O)[C@@]2(C)[C@H]([C@H](OC(=O)c3ccccc3)[C@]3(O)C[C@H](OC(=O)[C@H](O)[C@@H](NC(=O)c4ccccc4)c4ccccc4)C(C)=C1C3(C)C)[C@]1(OC(C)=O)CO[C@@H]1C[C@@H]2O [paclitaxel]
paclitaxel presence radius around the vessels: ≤ 10 micron
